Reference: US8242174B2 (priority 2007, dated 2012)
Structures can show the parent of a compound that is named as a salt.

molecular target: Lethal factor protease (Bacillus anthracis, UniProt P15917); assay: biochemical
Sequence (P15917 34-809 limits assumed): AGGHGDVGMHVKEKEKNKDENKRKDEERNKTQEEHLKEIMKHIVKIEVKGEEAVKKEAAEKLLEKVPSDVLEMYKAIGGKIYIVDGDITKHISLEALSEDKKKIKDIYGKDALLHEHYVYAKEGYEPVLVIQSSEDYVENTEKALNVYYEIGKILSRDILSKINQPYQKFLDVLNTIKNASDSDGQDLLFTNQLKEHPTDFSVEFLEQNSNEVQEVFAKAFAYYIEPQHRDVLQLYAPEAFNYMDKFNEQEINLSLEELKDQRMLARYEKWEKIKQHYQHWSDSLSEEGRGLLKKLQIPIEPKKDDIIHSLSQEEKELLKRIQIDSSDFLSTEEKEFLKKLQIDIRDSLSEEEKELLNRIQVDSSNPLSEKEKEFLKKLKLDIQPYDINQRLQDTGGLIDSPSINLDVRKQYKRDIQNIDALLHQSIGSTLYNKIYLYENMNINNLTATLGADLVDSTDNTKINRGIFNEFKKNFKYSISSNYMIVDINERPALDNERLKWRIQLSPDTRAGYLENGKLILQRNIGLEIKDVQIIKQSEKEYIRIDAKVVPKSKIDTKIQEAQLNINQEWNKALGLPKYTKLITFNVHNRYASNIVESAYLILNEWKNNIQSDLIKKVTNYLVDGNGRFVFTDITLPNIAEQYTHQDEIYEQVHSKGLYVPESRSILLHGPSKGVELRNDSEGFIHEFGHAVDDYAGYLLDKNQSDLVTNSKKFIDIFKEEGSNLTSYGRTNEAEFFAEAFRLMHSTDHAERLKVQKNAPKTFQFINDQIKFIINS

SMILES	Ki [nM]
Cc1cc(CCCCCC[C@@H](Nc2cc(C)c(F)c(C)c2)C(=O)NO)ccc1F [Compound 168118, (R)-2-(4-Fluoro-3,5-dimethyl-phenylamino)-8-(4-fluoro-3-methyl-phenyl)-octanoic acid hydroxyamide]	7200
CCCCC(Nc1cc(F)cc(F)c1)C(=O)NO (stereo not drawn) [Compound 167807, 2-(3,5-Difluoro-phenylamino)-hexanoic acid hydroxyamide]	228000
Cc1cc(NC(CCCC(F)(F)F)C(=O)NO)cc(C)c1F (stereo not drawn) [Compound 167483, 6,6,6-Trifluoro-2-(4-fluoro-3,5-dimethyl-phenylamino)-hexanoic acid hydroxyamide]	1300
CCCCC(Nc1cc(OC)cc(OC)c1)C(=O)NO (stereo not drawn) [Compound 167772, 2-(3,5-Dimethoxy-phenylamino)-hexanoic acid hydroxyamide]	257000
CCCCC(Nc1ccc(OC)cc1)C(=O)NO (stereo not drawn) [Compound 167275, 2-(4-Methoxy-phenylamino)-hexanoic acid hydroxyamide]	88100
Cc1cc(N[C@H](CCCCNS(=O)(=O)c2ccc(C(=O)O)cc2)C(=O)NO)cc(C)c1F [Compound 167613, (R)-4-[5-(4-Fluoro-3,5-dimethyl-phenylamino)-5-hydroxycarbamoyl-pentylsulfamoyl]-benzoic acid]	3660
Cc1cc(N[C@@H](C)C(=O)NO)cc(C)c1F [Compound 167498, (S)-2-(4-Fluoro-3,5-dimethyl-phenylamino)-N-hydroxy-propionamide]	51000
Cc1cc(N[C@H](CCCCNCc2ccc3sccc3c2)C(=O)NO)ccc1F [Compound 168182, (R)-6-[(Benzo[b]thiophen-5-ylmethyl)-amino]-2-(4-fluoro-3-methyl-phenylamino)-hexanoic acid hydroxyamide]	150
Cc1cc(N[C@H](CCCCNC(=O)OCc2ccccc2)C(=O)NO)cc(C)c1F [Compound 167503, (R)-[5-(4-Fluoro-3,5-dimethyl-phenylamino)-5-hydroxycarbamoyl-pentyl]-carbamic acid benzyl ester]	290
CCCCC(Nc1cc(Br)cc(Br)c1)C(=O)NO (stereo not drawn) [Compound 167843, 2-(3,5-Dibromo-phenylamino)-hexanoic acid hydroxyamide]	52300
Cc1cc(N[C@H](CCCCN)C(=O)NO)cc(C)c1F [Compound 167517, (R)-6-Amino-2-(4-fluoro-3,5-dimethyl-phenylamino)-hexanoic acid hydroxyamide]	250
Cc1cc(N[C@H](Cc2ccccc2)C(=O)NO)cc(C)c1F [Compound 167378, (R)-2-(4-Fluoro-3,5-dimethyl-phenylamino)-N-hydroxy-3-phenyl-propionamide]	7000
Cc1cc(N[C@H](CCCCNCc2cccc([N+](=O)[O-])c2)C(=O)NO)cc(C)c1F [Compound 167737, (R)-2-(4-Fluoro-3,5-dimethyl-phenylamino)-6-(3-nitro-benzylamino)-hexanoic acid hydroxyamide]	70
CC(=O)NCCCC[C@@H](Nc1cc(C)c(F)c(C)c1)C(=O)NO [Compound 167552, (R)-6-Acetylamino-2-(4-fluoro-3,5-dimethyl-phenylamino)-hexanoic acid hydroxyamide]	2530
CCCCC(Nc1cccc(F)c1)C(=O)NO (stereo not drawn) [Compound 167277, 2-(3-Fluoro-phenylamino)-hexanoic acid hydroxyamide]	134000
Cc1cc(N[C@H](CCCCNCc2ccccc2)C(=O)NO)cc(C)c1F [Compound 167736, (R)-6-Benzylamino-2-(4-fluoro-3,5-dimethyl-phenylamino)-hexanoic acid hydroxyamide]	110
Cc1cc(N[C@H](CCCCNS(=O)(=O)c2cccc([N+](=O)[O-])c2)C(=O)NO)cc(C)c1F [Compound 167622, (R)-2-(4-Fluoro-3,5-dimethyl-phenylamino)-6-(3-nitro-benzenesulfonylamino)-hexanoic acid hydroxyamide]	150
CCCCC(Nc1cccc(Cl)c1)C(=O)NO (stereo not drawn) [Compound 167257, 2-(3-Chloro-phenylamino)-hexanoic acid hydroxyamide]	61500
CCCCC(Nc1ccccc1C)C(=O)NO (stereo not drawn) [Compound 167292, 2-o-Tolylamino-hexanoic acid hydroxyamide]	273000
Cc1cc(N[C@H](CCCCNCCc2ccccc2)C(=O)NO)ccc1F [Compound 167979, (R)-2-(4-Fluoro-3-methyl-phenylamino)-6-phenethylamino-hexanoic acid hydroxyamide]	210
CC[C@@H](Nc1cc(C)c(F)c(C)c1)C(=O)NO [Compound 167450, (R)-2-(4-Fluoro-3,5-dimethyl-phenylamino)-N-hydroxy-butyramide]	670

SMILES	Ki [nM]
CNc1ccc(S(=O)(=O)NCCCC[C@@H](Nc2cc(C)c(F)c(C)c2)C(=O)NO)cc1 [Compound 167657, (R)-2-(4-Fluoro-3,5-dimethyl-phenylamino)-6-(4-methylamino-benzenesulfonylamino)-hexanoic acid hydroxyamide]	410
Cc1cc(N[C@H](CCCCNCc2cc(C)c(OCc3ccccc3)c(C)c2)C(=O)NO)ccc1F [Compound 167969, (R)-6-(4-Benzyloxy-3,5-dimethyl-benzylamino)-2-(4-fluoro-3-methyl-phenylamino)-hexanoic acid hydroxyamide]	270
Cc1cc(N[C@H](CCCCNC(=O)c2ccccc2)C(=O)NO)cc(C)c1F [Compound 167587, (R)—N-[5-(4-Fluoro-3,5-dimethyl-phenylamino)-5-hydroxycarbamoyl-pentyl]-benzamide]	970
CCCCC(Nc1cc(C)cc(C)c1)C(=O)NO (stereo not drawn) [Compound 167226, 2-(3,5-Dimethyl-phenylamino)-hexanoic acid hydroxyamide]	7400
Cc1cc(N[C@H](CCCCNCc2ccccc2)C(=O)NO)ccc1F [Compound 167980, (R)-6-Benzylamino-2-(4-fluoro-3-methyl-phenylamino)-hexanoic acid hydroxyamide]	150
Cc1cc(N[C@H](CCCCNC(=O)CCc2ccccc2)C(=O)NO)ccc1F [Compound 167993, (R)-2-(4-Fluoro-3-methyl-phenylamino)-6-(3-phenyl-propionylamino)-hexanoic acid hydroxyamide]	880
Cc1cc(NCC(=O)NO)cc(C)c1F [Compound 167452, 2-(4-Fluoro-3,5-dimethyl-phenylamino)-N-hydroxy-acetamide]	4000
Cc1cc(N[C@H](C(=O)NO)C(C)C)cc(C)c1F [Compound 167296, (5)-2-(4-Fluoro-3,5-dimethyl-phenylamino)-N-hydroxy-3-methyl-butyramide]	201000
Cc1cc(N[C@H](CCCCNCc2ccc(Cl)s2)C(=O)NO)ccc1F [Compound 168008, (R)-6-[(5-Chloro-thiophen-2-ylmethyl)-amino]-2-(4-fluoro-3-methyl-phenylamino)-hexanoic acid hydroxyamide]	60
Cc1cc(N[C@H](CCCCNCc2cc(C)c(F)c(C)c2)C(=O)NO)ccc1F [Compound 167968, (R)-6-(4-Fluoro-3,5-dimethyl-benzylamino)-2-(4-fluoro-3-methyl-phenylamino)-hexanoic acid hydroxyamide]	100
Cc1cc(N[C@H](CCCCN(CC2CCCCC2)CC2CCCCC2)C(=O)NO)ccc1F [Compound 167991, (R)-6-(Bis-cyclohexylmethyl-amino)-2-(4-fluoro-3-methyl-phenylamino)-hexanoic acid hydroxyamide]	16600
CCCCC(Nc1cccc(CC)c1)C(=O)NO (stereo not drawn) [Compound 167201, 2-(3-Ethyl-phenylamino)-hexanoic acid hydroxyamide]	89800
Cc1cc(N[C@H](CCCCNS(=O)(=O)c2cccc(C(=O)O)c2)C(=O)NO)cc(C)c1F [Compound 167621, (R)-3-[5-(4-Fluoro-3,5-dimethyl-phenylamino)-5-hydroxycarbamoyl-pentylsulfamoyl]-benzoic acid]	1570
CNc1cccc(S(=O)(=O)NCCCC[C@@H](Nc2cc(C)c(F)c(C)c2)C(=O)NO)c1 [Compound 167667, (R)-2-(4-Fluoro-3,5-dimethyl-phenylamino)-6-(3-methylamino-benzenesulfonylamino)-hexanoic acid hydroxyamide]	590
Cc1cc(N[C@H](CCCCNCc2ccc(Cl)cc2)C(=O)NO)ccc1F [Compound 168181, (R)-6-(4-Chloro-benzylamino)-2-(4-fluoro-3-methyl-phenylamino)-hexanoic acid hydroxyamide]	190
CCCCC(Nc1ccc(F)cc1)C(=O)NO (stereo not drawn) [Compound 167211, 2-(4-Fluoro-phenylamino)-hexanoic acid hydroxyamide]	81000
Cc1cc(N[C@H](C(=O)NO)C(C)C)ccc1F [Compound 167268, (S)-2-(4-Fluoro-3-methyl-phenylamino)-N-hydroxy-3-methyl-butyramide hydrochloride]	> 300000
Cc1cc(N[C@H](CCCCNC(=O)CCCc2ccccc2)C(=O)NO)ccc1F [Compound 167994, (R)-2-(4-Fluoro-3-methyl-phenylamino)-6-(4-phenyl-butyrylamino)-hexanoic acid hydroxyamide]	650
Cc1cc(N[C@H](CCCCN(Cc2ccc(F)cc2)Cc2ccc(F)cc2)C(=O)NO)ccc1F [Compound 167963, (R)-6-[Bis-(4-fluoro-benzyl)-amino]-2-(4-fluoro-3-methyl-phenylamino)-hexanoic acid hydroxyamide]	1100
Cc1cc(N[C@H](CCCCN)C(=O)NO)ccc1F [Compound 167949, (R)-6-Amino-2-(4-fluoro-3-methyl-phenylamino)-hexanoic acid hydroxyamide]	200
Cc1cc(N[C@H](CO)C(=O)NO)cc(C)c1F [Compound 167485, (R)-2-(4-Fluoro-3,5-dimethyl-phenylamino)-3,N-dihydroxy-propionamide]	590
